Here are results for 2 compounds from PubChem BioAssay AID652210 (Johns Hopkins Ion Channel Center, 2013).

Active and inactive are the calls of the source.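 Rule for the calls: active = over half block of KCNK9 potassium channel current at 10 µM; inactive = the rest.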

The experiment concerns the target Potassium channel subfamily K member 9 (Homo sapiens) (UniProt Q9NPC2). Put plainly: TASK3 channel blockers, electrophysiology – cell-based, automated electrophysiology, selectivity assay for TASK1 (KCNK3) inhibitor project, SAR follow-up (AID 652210). Particulars: HEK293 inducible KCNK9, QPatch automated patch clamp. (Patch clamp records ionic current or voltage across a cell membrane.)

Chain of Potassium channel subfamily K member 9 (Homo sapiens) (Q9NPC2 whole entry, looked up): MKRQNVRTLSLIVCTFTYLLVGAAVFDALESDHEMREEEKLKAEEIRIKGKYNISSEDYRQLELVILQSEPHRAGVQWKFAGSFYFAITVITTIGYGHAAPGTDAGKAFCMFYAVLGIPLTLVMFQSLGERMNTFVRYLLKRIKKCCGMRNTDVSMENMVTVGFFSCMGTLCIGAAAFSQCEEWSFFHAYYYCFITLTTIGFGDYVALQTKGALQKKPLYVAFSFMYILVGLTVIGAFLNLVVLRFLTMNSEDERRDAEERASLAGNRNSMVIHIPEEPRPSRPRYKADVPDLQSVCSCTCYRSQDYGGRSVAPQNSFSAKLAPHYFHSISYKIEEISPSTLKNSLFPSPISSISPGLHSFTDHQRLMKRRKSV

Usually IC50 stands for the point on the concentration scale where inhibition reaches its midpoint. Take `Cc1cccc(C(=O)Nc2cccc(NC(=O)c3ccccc3)c2)c1`: the IC50 was 690 nM.
Turning to `Cc1cccc(C(=O)Nc2cccc(NC(=O)c3ccncc3)c2)c1`, the IC50 result was “inactive”.
